As usually defined, the IC50 is the concentration at which inhibition is half-maximal.

Here are results for 34 compounds from patent US8541588B2, “Sulfonamide derivatives” (Pfizer Limited, priority 2009, dated 2013).

Molecules are shown by their SMILES.

T1 sequence (Q15858 whole entry): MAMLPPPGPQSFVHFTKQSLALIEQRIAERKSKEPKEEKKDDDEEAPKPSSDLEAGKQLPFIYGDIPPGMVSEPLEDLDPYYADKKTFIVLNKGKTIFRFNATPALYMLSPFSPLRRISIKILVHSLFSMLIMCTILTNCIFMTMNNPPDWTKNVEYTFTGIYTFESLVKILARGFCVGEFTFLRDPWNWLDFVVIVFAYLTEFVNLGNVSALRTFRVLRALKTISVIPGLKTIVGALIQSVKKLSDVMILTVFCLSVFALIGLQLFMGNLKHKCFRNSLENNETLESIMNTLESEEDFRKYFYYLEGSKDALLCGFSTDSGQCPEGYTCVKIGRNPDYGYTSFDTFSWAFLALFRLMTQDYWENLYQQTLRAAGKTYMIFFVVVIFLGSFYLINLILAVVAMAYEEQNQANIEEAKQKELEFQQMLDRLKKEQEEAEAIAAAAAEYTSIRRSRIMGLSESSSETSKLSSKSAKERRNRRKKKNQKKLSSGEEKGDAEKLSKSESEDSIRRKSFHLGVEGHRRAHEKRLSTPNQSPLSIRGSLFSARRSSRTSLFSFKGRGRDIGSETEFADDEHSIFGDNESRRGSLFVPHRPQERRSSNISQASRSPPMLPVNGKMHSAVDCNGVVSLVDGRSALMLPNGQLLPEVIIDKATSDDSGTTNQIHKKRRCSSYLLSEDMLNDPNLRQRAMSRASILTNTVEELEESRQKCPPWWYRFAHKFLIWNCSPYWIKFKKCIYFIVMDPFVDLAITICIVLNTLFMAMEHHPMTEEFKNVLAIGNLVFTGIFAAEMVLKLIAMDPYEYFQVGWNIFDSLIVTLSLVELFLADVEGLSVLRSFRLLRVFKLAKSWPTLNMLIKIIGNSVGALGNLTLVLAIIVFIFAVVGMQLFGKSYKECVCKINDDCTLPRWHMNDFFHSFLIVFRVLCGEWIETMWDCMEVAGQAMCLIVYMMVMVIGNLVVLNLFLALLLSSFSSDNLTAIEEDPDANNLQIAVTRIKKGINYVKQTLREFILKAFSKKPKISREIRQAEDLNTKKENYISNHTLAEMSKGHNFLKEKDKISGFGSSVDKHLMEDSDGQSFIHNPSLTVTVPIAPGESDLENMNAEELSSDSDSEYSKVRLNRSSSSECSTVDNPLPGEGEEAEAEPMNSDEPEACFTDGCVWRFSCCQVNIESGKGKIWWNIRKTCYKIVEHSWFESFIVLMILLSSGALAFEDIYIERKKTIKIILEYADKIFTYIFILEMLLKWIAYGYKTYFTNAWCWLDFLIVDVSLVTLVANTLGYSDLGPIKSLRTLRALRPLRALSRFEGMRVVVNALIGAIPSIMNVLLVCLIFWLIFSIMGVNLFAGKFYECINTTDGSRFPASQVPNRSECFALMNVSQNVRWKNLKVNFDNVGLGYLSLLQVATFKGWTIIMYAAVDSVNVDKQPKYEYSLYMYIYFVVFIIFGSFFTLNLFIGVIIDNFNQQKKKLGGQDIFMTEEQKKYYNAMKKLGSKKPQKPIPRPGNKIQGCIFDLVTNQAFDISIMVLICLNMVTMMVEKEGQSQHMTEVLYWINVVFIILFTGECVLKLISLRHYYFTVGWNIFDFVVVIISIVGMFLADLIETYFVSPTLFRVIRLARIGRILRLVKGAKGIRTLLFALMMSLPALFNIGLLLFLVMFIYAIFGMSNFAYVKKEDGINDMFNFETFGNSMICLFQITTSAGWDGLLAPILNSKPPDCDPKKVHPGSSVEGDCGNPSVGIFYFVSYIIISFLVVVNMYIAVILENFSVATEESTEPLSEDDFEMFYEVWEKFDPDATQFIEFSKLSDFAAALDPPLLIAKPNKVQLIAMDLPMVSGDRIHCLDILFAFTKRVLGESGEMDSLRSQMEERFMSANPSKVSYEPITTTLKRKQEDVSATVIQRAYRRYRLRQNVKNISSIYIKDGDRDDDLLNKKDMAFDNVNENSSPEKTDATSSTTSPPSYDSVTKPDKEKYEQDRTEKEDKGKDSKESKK

This experiment concerns the target T1, Nav1.7 (or SCN9A) channel; HEK cells stably transfected with hSCN9A (Homo sapiens, UniProt Q15858).
T1 construct: expressed in transfected cells
Nature of the experiment: Nav1.7 block, PatchXpress 7000 automated whole-cell voltage clamp, estimated IC50 (EIC50). It is filed as cell-based. Conditions: estimated IC50; hSCN9A HEK cells, PatchXpress platform; Examples 283-814.
On to `N#Cc1cc(S(=O)(=O)Nc2ncns2)ccc1Oc1cc(Cl)c(F)cc1-c1cn[nH]c1` [Example 754, 4-[5-chloro-4-fluoro-2-(1H-pyrazol-4-yl)phenoxy]-3-cyano-N-1,2,4-thiadiazol-5-ylbenzenesulfonamide], for which the IC50 was 0.0053 µM.

Turning to `O=S(=O)(Nc1ncns1)c1cc(Cl)c(Oc2ccc(F)cc2-c2cn[nH]c2)cc1F` [Example 755, 5-chloro-2-fluoro-4-[4-fluoro-2-(1H-pyrazol-4-yl)phenoxy]-N-1,2,4-thiadiazol-5-ylbenzenesulfonamide], the IC50 was 0.0024 µM.

For `O=S(=O)(Nc1ncns1)c1cc(F)c(Oc2ccc(F)cc2-c2cn[nH]c2)cc1F` [Example 756, 2,5-difluoro-4-[4-fluoro-2-(1H-pyrazol-4-yl)phenoxy]-N-1,2,4-thiadiazol-5-ylbenzenesulfonamide], the concentration for half-maximal inhibition (IC50) is 0.011 µM.

Turning to `O=S(=O)(Nc1ncns1)c1cc(F)c(Oc2cc(F)c(Cl)cc2-c2cn[nH]c2)cc1F` [Example 757, 4-[4-chloro-5-fluoro-2-(1H-pyrazol-4-yl)phenoxy]-2,5-difluoro-N-1,2,4-thiadiazol-5-ylbenzenesulfonamide], the concentration for half-maximal inhibition (IC50) is 0.0009 µM.

For `CCn1nc(C(F)(F)F)cc1-c1ccc(Oc2ncc(S(=O)(=O)Nc3nccs3)cc2Cl)cc1` [Example 758, 5-chloro-6-{4-[1-ethyl-3-(trifluoromethyl)-1H-pyrazol-5-yl]phenoxy}-N-1,3-thiazol-2-ylpyridine-3-sulfonamide], the IC50 is reported as 0.21 µM.

`Cn1nccc1-c1cc(Cl)ccc1Oc1ncc(S(=O)(=O)Nc2nccs2)cc1Cl` [Example 759, 5-chloro-6-[4-chloro-2-(1-methyl-1H-pyrazol-5-yl)phenoxy]-N-1,3-thiazol-2-ylpyridine-3-sulfonamide]: the IC50 is recorded as 0.25 µM.

Turning to `N#Cc1cc(S(=O)(=O)Nc2cscn2)ccc1Oc1ccc(Cl)cc1-c1ccnn1C1CCNCC1` [Example 760, 4-[4-chloro-2-(1-piperidin-4-yl-1H-pyrazol-5-yl)phenoxy]-3-cyano-N-1,3-thiazol-4-ylbenzenesulfonamide], the IC50 was 0.088 µM.

Consider `N#Cc1cc(S(=O)(=O)Nc2cscn2)ccc1Oc1ccc(Cl)cc1-c1ccn(C2CCNCC2)n1` [Example 761, 4-[4-chloro-2-(1-piperidin-4-yl-1H-pyrazol-3-yl)phenoxy]-3-cyano-N-1,3-thiazol-4-ylbenzenesulfonamide], for which the IC50 is 5.4 µM.

With `O=S(=O)(Nc1ncns1)c1cc(F)c(Oc2cc(F)c(Cl)cc2-c2ccn[nH]2)cc1F` [Example 762, 4-[4-chloro-5-fluoro-2-(1H-pyrazol-5-yl)phenoxy]-2,5-difluoro-N-1,2,4-thiadiazol-5-ylbenzenesulfonamide], the IC50 was 0.0042 µM.

`N#Cc1cc(S(=O)(=O)Nc2ncns2)ccc1Oc1cc(F)c(Cl)cc1-c1ccn[nH]1` [Example 763, 4-[4-chloro-5-fluoro-2-(1H-pyrazol-5-yl)phenoxy]-3-cyano-N-1,2,4-thiadiazol-5-ylbenzenesulfonamide]: the IC50 is 0.034 µM.

Take `O=S(=O)(Nc1nncs1)c1cc(Cl)c(Oc2ccc(C(F)(F)F)cc2-c2cn[nH]c2)cc1F` [Example 764, 5-chloro-2-fluoro-4-[2-(1H-pyrazol-4-yl)-4-(trifluoromethyl)phenoxy]-N-1,3,4-thiadiazol-2-ylbenzenesulfonamide]: the IC50 is 0.03 µM.

Consider `O=S(=O)(Nc1nncs1)c1cc(Cl)c(Oc2ccc(Cl)cc2C2CCNCC2)cc1F` [Example 765, 5-chloro-4-(4-chloro-2-piperidin-4-ylphenoxy)-2-fluoro-N-1,3,4-thiadiazol-2-ylbenzenesulfonamide], for which the IC50 was 0.11 µM.

As for `N#Cc1cc(S(=O)(=O)Nc2cscn2)ccc1Oc1ccc(Cl)cc1-c1cccc(N)n1` [Example 766, 4-[2-(6-aminopyridin-2-yl)-4-chlorophenoxy]-3-cyano-N-1,3-thiazol-4-ylbenzenesulfonamide], the IC50 was 0.5 µM.

On to `N#Cc1cc(S(=O)(=O)Nc2cscn2)ccc1Oc1ccc(Cl)cc1-c1cn[nH]c1` [Example 767, 4-[4-chloro-2-(1H-pyrazol-4-yl)phenoxy]-3-cyano-N-1,3-thiazol-4-ylbenzenesulfonamide], for which the IC50 was 0.24 µM.

Turning to `N#Cc1cc(S(=O)(=O)Nc2cscn2)ccc1Oc1cccc(Cc2cc[nH]n2)c1` [Example 768, 3-cyano-4-[3-(1H-pyrazol-3-ylmethyl)phenoxy]-N-1,3-thiazol-4-ylbenzenesulfonamide], the IC50 was 11 µM.

Consider `CC(C)(C)n1ccc(Cc2cccc(Oc3ccc(S(=O)(=O)Nc4cscn4)cc3C#N)c2)n1` [Example 769, 4-{3-[(1-tert-butyl-1H-pyrazol-3-yl)methyl]phenoxy}-3-cyano-N-1,3-thiazol-4-ylbenzenesulfonamide], for which the IC50 was 8.7 µM.

With `N#Cc1cc(S(=O)(=O)Nc2ccc(C(F)(F)F)cn2)ccc1Oc1ccccc1-c1ccccc1` [Example 770, 4-(biphenyl-2-yloxy)-3-cyano-N-[5-(trifluoromethyl)pyridin-2-yl]benzenesulfonamide], the IC50 was 24 µM.

Turning to `N#Cc1ccc(Oc2cc(F)c(S(=O)(=O)Nc3ncc(Cl)s3)cc2F)c(-c2cn[nH]c2)c1` [Example 771, N-(5-chloro-1,3-thiazol-2-yl)-4-[4-cyano-2-(1H-pyrazol-4-yl)phenoxy]-2,5-difluorobenzenesulfonamide], the IC50 was 0.24 µM.

Turning to `Cn1nccc1-c1cc(Cl)ccc1Oc1ccc(S(=O)(=O)Nc2ccc(C(F)(F)F)cn2)cc1C#N` [Example 772, 4-[4-chloro-2-(1-methyl-1H-pyrazol-5-yl)phenoxy]-3-cyano-N-[5-(trifluoromethyl)pyridin-2-yl]benzenesulfonamide], the IC50 was 31 µM.

As to `O=S(=O)(Nc1ncns1)c1cc(Cl)c(Oc2cc(F)ccc2-c2ccn[nH]2)cc1F` [Example 773, 5-chloro-2-fluoro-4-[5-fluoro-2-(1H-pyrazol-5-yl)phenoxy]-N-1,2,4-thiadiazol-5-ylbenzenesulfonamide], the IC50 was 0.0069 µM.

As to `N#Cc1cc(S(=O)(=O)Nc2nccs2)ccc1Oc1ccc(-n2cc(F)cn2)cc1` [Example 774, 3-cyano-4-[4-(4-fluoro-1H-pyrazol-1-yl)phenoxy]-N-1,3-thiazol-2-ylbenzenesulfonamide], the IC50 is over 1 µM.

For the compound `CC(C)(C)n1nccc1-c1cc(Cl)ccc1Oc1ccc(S(=O)(=O)Nc2ncns2)cc1C#N` [Example 775, 4-[2-(1-tert-butyl-1H-pyrazol-5-yl)-4-chlorophenoxy]-3-cyano-N-1,2,4-thiadiazol-5-ylbenzenesulfonamide], the IC50 was 0.088 µM.

For the compound `Cc1nnc(NS(=O)(=O)c2ccc(Oc3ccc(Cl)cc3-c3ccnn3C)c(F)c2)s1` [Example 776, 4-[4-chloro-2-(1-methyl-1H-pyrazol-5-yl)phenoxy]-3-fluoro-N-(5-methyl-1,3,4-thiadiazol-2-yl)benzenesulfonamide], the IC50 was 2.5 µM.

Consider `O=S(=O)(Nc1cscn1)c1cc(Cl)c(Oc2ccc(Cl)cc2-c2cnn[nH]2)cc1F` [Example 777, 5-chloro-4-[4-chloro-2-(1H-1,2,3-triazol-5-yl)phenoxy]-2-fluoro-N--thiazol-4-ylbenzenesulfonamide], for which the half-inhibitory concentration (IC50) is 1.3 µM.

On to `N#Cc1cc(S(=O)(=O)Nc2nccs2)ccc1Oc1cccc(-c2ccccc2)c1` [Example 778, 4-(biphenyl-3-yloxy)-3-cyano-N-1,3-thiazol-2-ylbenzenesulfonamide], for which the IC50 is 0.47 µM.

Consider `Cn1nc(C(F)(F)F)cc1-c1ccc(F)c(Oc2ccc(S(=O)(=O)Nc3nccs3)cc2C#N)c1` [Example 779, 3-cyano-4-{2-fluoro-5-[1-methyl-3-(trifluoromethyl)-1H-pyrazol-5-yl]phenoxy}-N-1,3-thiazol-2-ylbenzenesulfonamide], for which the IC50 is 0.21 µM.

Consider `Cn1nccc1-c1ccc(I)cc1Oc1ccc(S(=O)(=O)Nc2ncc(F)s2)cc1C#N` [Example 780, 3-cyano-N-(5-fluoro-1,3-thiazol-2-yl)-4-[5-iodo-2-(1-methyl-1H-pyrazol-5-yl)phenoxy]benzenesulfonamide], for which the half-inhibitory concentration (IC50) is 0.032 µM.

With `O=S(=O)(Nc1ncns1)c1cc(F)c(Oc2ccc(F)cc2-c2ccn[nH]2)cc1F` [Example 781, 2,5-difluoro-4-[4-fluoro-2-(1H-pyrazol-5-yl)phenoxy]-N-1,2,4-thiadiazol-5-ylbenzenesulfonamide], the IC50 was 0.022 µM.

Turning to `Cn1nccc1-c1cc(OC(F)(F)F)ccc1Oc1ccc(S(=O)(=O)Nc2nccs2)cc1C#N` [Example 783, 3-cyano-4-[2-(1-methyl-1H-pyrazol-5-yl)-4-(trifluoromethoxy)phenoxy]-N-1,3-thiazol-2-ylbenzenesulfonamide], the half-inhibitory concentration (IC50) was 0.0078 µM.

For the compound `N#Cc1cc(S(=O)(=O)Nc2ncc(Cl)s2)ccc1Oc1ccc(F)cc1-c1cn[nH]c1` [Example 785, N-(5-Chloro-1,3-thiazol-2-yl)-3-cyano-4-[4-fluoro-2-(1H-pyrazol-4-yl)phenoxy]benzenesulfonamide], the IC50 was 0.04 µM.

For the compound `N#Cc1cc(S(=O)(=O)Nc2ncc(Cl)s2)ccc1Oc1ccc(Cl)cc1-c1cn[nH]c1` [Example 786, N-(5-Chloro-1,3-thiazol-2-yl)-3-cyano-4-[4-chloro-2-(1H-pyrazol-4-yl)phenoxy]benzenesulfonamide], the IC50 is 0.0076 µM.

In the case of `Nc1cc(-c2cc(Cl)ccc2Oc2cc(F)c(S(=O)(=O)Nc3ncns3)cc2F)ccn1` [Example 787, 4-[2-(2-aminopyridin-4-yl)-4-chlorophenoxy]-2,5-difluoro-N-1,2,4-thiadiazol-5-ylbenzenesulfonamide], the IC50 was 0.0072 µM.

Consider `O=S(=O)(Nc1ncns1)c1cc(F)c(Oc2ccc(C(F)(F)F)cc2-c2ccn[nH]2)cc1F` [Example 789, 2,5-difluoro-4-[2-(1H-pyrazol-5-yl)-4-(trifluoromethyl)phenoxy]-N-1,2,4-thiadiazol-5-ylbenzenesulfonamide], for which the IC50 is 0.0021 µM.

Regarding `O=S(=O)(Nc1ncns1)c1cc(F)c(Oc2ccc(C(F)(F)F)cc2-c2cn[nH]c2)cc1F` [Example 790, 2,5-difluoro-4-[2-(1H-pyrazol-4-yl)-4-(trifluoromethyl)phenoxy]-N-1,2,4-thiadiazol-5-ylbenzenesulfonamide], the concentration for half-maximal inhibition (IC50) is 0.0012 µM.
